Measured values from publication PMC7180452, “Purine and Purine Isostere Derivatives of Ferrocene: An Evaluation of ADME, Antitumor and Electrochemical Properties” (Molecules, 2020).
“Also recorded” adds a separate entry of the source. Where two headings read alike, the source gives them in different places.

Tests used:
[1] = pH 7.4
Description: (§5) The distribution coefficient Chrom logD, a parameter used to assess the lipophilicity of compounds [36, 37], was determined for novel purine and purine isosteres with a ferrocene motif as shown in Table 1.
(§6) The distribution coefficient, Chrom logD, was determined from compounds’ gradient retention times by employing a high-performance liquid chromatography method with fast acetonitrile gradient. Compounds were prepared for analysis in final concentration of 1.25 mM by dilution of 10 mM stock solutions in DMSO with acetonitrile. Aqueous mobile phase was 50 mM ammonium acetate adjusted with ammonia solution to pH 7.4 and the organic mobile phase was acetonitrile. A reversed phase HPLC column Luna C18, 50 × 3 mm i.d., 5 µm particle size (Phenomenex, Torrance, CA, USA) was used for analysis. Sample injection volume was 2 µL and the flow rate was 1 mL min^−1. All compounds were analysed in duplicates. Fast-gradient elution was as follows: from 0 to 100% of acetonitrile (0−3 min), 100% of acetonitrile (3.0−3.5 min), from 100 to 0% of acetonitrile (3.5−3.7 min), and re-equilibration with 100% of aqueous mobile phase (3.7−5.0 min). All measurements were performed on an HPLC-DAD instrument Agilent 1100 Series (Agilent Technologies, Santa Clara, CA, USA) coupled with a mass spectrometer Micromass Quattro API (Waters, MA, USA). MassLynx software, version 4.1 (Waters, Manchester, UK) was used for data acquisition and processing. Before compound analysis, a calibration step was performed. A set of standard compounds with literature CHI values [36] were plotted against gradient retention times to obtain a calibration equation, which was used to determine CHI value from the compounds’ retention times.

[2] = test system: ductal pancreatic adenocarcinoma (CFPAC-1); test: In vitro antiproliferative activity, CFPAC-1; assay type: cell-based, human; details: CFPAC-1 cells
Description: (§1) Antiproliferative activity of compounds 11a−11c, 12a−12c, 13a−13c, 14a−14c, 15a−15c, 16a, 23a−23c, 24a−24c, 25a−25c, 34a−34c and 35a−35c was evaluated in vitro on four human tumor cell lines (American Type Culture Collection, Manassas, VA, USA): metastatic colorectal adenocarcinoma (SW620), ductal pancreatic adenocarcinoma (CFPAC-1), hepatocellular carcinoma (HepG2) and cervical carcinoma (HeLa) as well as normal skin fibroblasts (HFF).

[3] = test system: hepatocellular carcinoma (HepG2); test: In vitro antiproliferative activity, HepG2; assay type: cell-based, human; details: HepG2 cells
Description: as §1

[4] = test system: cervical carcinoma (HeLa); test: In vitro antiproliferative activity, HeLa; assay type: cell-based, human; details: HeLa cells
Description: as §1

[5] = test system: metastatic colorectal adenocarcinoma (SW620); test: In vitro antiproliferative activity, SW620; assay type: cell-based, human; details: SW620 cells
Description: as §1

[6] = test system: normal skin fibroblasts (HFF); test: Cytotoxicity on non-tumor cells, HFF; assay type: cell-based, human
Description: as §1

MDCKII-hMDR1 cells = test: Permeability and P-gp substrate assessment in MDCKII-hMDR1 cell monolayer; assay type: in vitro ADME, canine; details: for Permeability classification: MDCKII-hMDR1, in words; for Efflux Ratio (BA/AB) / Papp (AB) / Papp (BA): without P-gp inhibitor; for Papp (AB) / Papp (BA): 10 µM, 60 min
Description: The Madin-Darby canine kidney cells with overexpressed human multidrug-resistant gene (MDCKII-hMDR1) have been frequently used to study bidirectional transport of compounds and assess P-gp substrate potential. Apparent permeability (Papp) values were determined from the amount permeated through the MDCKII-hMDR1 cell monolayer in both the apical-basolateral (AB) and basolateral-apical (BA) direction.
MDCKII-hMDR1 cell monolayer was used for determination of permeability and P-gp substrate assessment. MDCKII-hMDR1 cells (Solvo Biotechnology, Szeged, Hungary) were grown in the controlled atmosphere (37 °C, 95% humidity, 5% CO2) in MDCK cell culture medium containing Dulbecco’s Modified Eagle Medium (DMEM) + 10% Fetal bovine serum (FBS, inactivated) + 1% glutamax-100 + 1% antibiotic/antimycotic + 1% of Non-essential amino acids Minimum Essential Medium (MEM NEAA). Cultures were split every 3–4 days using 0.05% Trypsin-EDTA. Cells were seeded 4 days prior to the experiment in concentration of 0.3 × 10^6 cells mL^−1 and cultured in CO2 incubator. On the experiment day, cell monolayers were washed with Dulbecco’s phosphate buffer saline (D-PBS) and equilibrated for 45 min in CO2 incubator in D-PBS containing 1% DMSO (1% v/v) with or without Elacridar (2 µM). Compounds, in final concentration of 10 µM, were prepared in transport medium containing Lucifer yellow (100 µM), with DMSO contentment of 1% (v/v) and in the presence and without Elacridar. Lucifer yellow calibration curve was prepared by serial dilution (12 points, with 100 µM as the highest point). Monolayer integrity was examined by fluorescent measurement on a Microplate reader Infinite F500 (Tecan) by using an excitation of 485 nm and emission of 530 nm. Experiment was started by applying the solutions containing test compounds to apical and basolateral side of the cell monolayer. Starting compound concentration (C0) was sampled at the start of the experiment and apical and basolateral compartments were sampled after incubation at 37 °C with gentle shaking for 60 min. Compound were tested in duplicate. Amprenavir was used as a control with low permeability and as a P-gp substrate without inhibitor presence, turning into a highly permeable compound with the inhibitor present.
Samples were analyzed on an ABSciex API 4000 Triple Quadrupole Mass Spectrometer (Sciex, Division of MDS Inc., Toronto, ON, Canada) coupled to a UHPLC Nexera X2 (Shimadzu, Kyoto, Japan). Samples (1 µL) were injected onto a reversed phase HPLC column Luna Omega Polar C18, 30 × 2.1 mm i.d., 1.6 µm particle size (Phenomenex) which was kept at 50 °C. Aqueous solution was 0.1% formic acid in deionized water and the organic mobile phase was […]. Flow rate was kept at 0.7 mL min^−1 for all measurements. Fast-gradient elution was as follows: 2% of organic mobile phase through 0.15 min, from 2 to 95% of organic mobile phase (0.15−0.7 min), 95% of organic mobile phase (0.7−1.1 min), from 95 to 2% of organic mobile phase (1.1−1.11 min), and re-equilibration with 98% of aqueous mobile phase (1.11−1.5 min). Positive ion mode with turbo spray, an ion source temperature of 550 °C and a dwell time of 75 ms were utilized for mass spectrometric detection. Quantitation was performed using multiple reaction monitoring (MRM) at the specific transition corresponding to the compound of interest. Warfarin was used as an internal standard. The ratios between compound and internal standard peak areas were used instead of real compound concentration. Apparent permeability coefficient, Papp (nm s^−1) values were calculated by using the following Equation (1):Papp [nm s^−1] = (dQ/dT) × (1/C0) × (1/A)(1) where: dQ/dT = permeability rate; C0 = initial concentration in donor compartment; A = surface area of the cell monolayer (0.7 cm^2). […]

[7] = Metabolic stability in mouse liver microsomes; assay type: in vitro ADME; details: for In Vivo CLh / In Vivo CLh (% LBF): mouse; for In Vivo CLh: predicted in vivo hepatic clearance; for In Vivo CLh (% LBF): predicted, % of liver blood flow; for t1/2: mouse liver microsomes, 1 µM
Description: (§2) Metabolic stability of compounds was assessed in human and mouse liver microsomes (Corning, Tewksbury, MA, USA). Compounds, in final concentration of 1 µM, were incubated in phosphate buffer (50 mM, pH 7.4) for 60 min at 37 °C together with liver microsomes and NADPH generating system (nicotinamide adenine dinucleotide phosphate (NADP, 0.5 mM), glucose-6-phosphate (G6P, 5 mM), glucose-6-phosphate dehydrogenase (1.5 U mL^−1) and magnesium chloride (0.5 mM)). Also, compounds were incubated without the presence of NADPH cofactor, as a buffer stability control. Metabolic activity of liver microsomes was verified by including testosterone and propranolol as positive controls, as well as caffeine as a negative control. Sampling was performed at six time points (0, 10, 20, 30, 45 and 60 min), followed by reaction termination by addition of acetonitrile/methanol mixture (2:1, v/v) containing dicofenac as internal standard. Samples were analyzed as previously described for samples from permeability assay. The in vitro half-life (t1/2) was calculated from the slope of the linear regression by plotting ln % remaining of parent compound against incubation time. In vitro intrinsic clearance, CLint was calculated from half-life using following Equation (3):(3) CLint [µL min^−1 mg^−1]=ln2/t1/2×mL per incubation/mg protein per incubation where 52.5 mg protein/g liver is used as a constant.
(§3) Predicted in vivo hepatic clearance, in vivo CLh was calculated as follows:(4) in vivo CLh [mL min^−1 kg^−1]=CLint×(mg protein/g liver)×Q×(LW/BW) /Q+(CLint×(mg protein/g liver)×(LW/BW)) where: LW/BW = liver weight/body weight [g kg^−1]; 25.7 (human), 87.5 (mouse); Q = LBF = liver blood flow [mL min^−1 kg^−1]; 21/1.26 (human), 131/7.86 (mouse).
(§4) Predicted in vivo hepatic clearance can be expressed as %LBF and calculated as follows:(5) in vivo CLh [%LBF]=in vivo CLh/LBF×100

[8] = Metabolic stability in human liver microsomes; assay type: in vitro ADME; details: for t1/2: 1 µM; for In Vivo CLh / In Vivo CLh (% LBF): human; for In Vivo CLh: predicted in vivo hepatic clearance; for In Vivo CLh (% LBF): predicted, % of liver blood flow
Description: as §2, §3, §4

[9] = Turbidimetric kinetic solubility assay; details: for Kinetic Solubility: PBS, 1% DMSO, 37 °C, 2 h, estimated range
Description: The turbidimetric solubility assay, which allows a rapid determination of the kinetic solubility of newly synthesized compounds using small amounts of their DMSO solutions, was used to assess the kinetic solubility [38].
The compounds’ DMSO stock solutions in concentration of 10 mM were serially diluted by factor 3.3×, 3×, 3.3× and 3× in DMSO. Prepared solutions were spiked into phosphate-buffered saline (PBS, 100 mM) to obtain final compounds’ concentrations of 100, 30, 10, 3 and 1 µM (3 µL of prepared dilutions were spiked to 297 µL of PBS, with final DMSO content of 1%, v/v). All compounds were tested in two replicas per concentration. Prepared solutions were incubated at 37 °C for 2 h with gentle shaking. Blank solutions were also prepared by spiking DMSO in PBS buffer (1% of DMSO, v/v). […] Compound/control samples are compared to the blank solution. […] Results were expressed as an estimated solubility range (lower and upper bound).

[10] = Chrom logD determination (fast-gradient HPLC); details: pH 7.4
Description: as §5, §6

Compound	Chrom logD [1]	IC50 [2] [µM]	IC50 [3] [µM]	IC50 [4] [µM]	IC50 [5] [µM]	IC50 [6] [µM]	Permeability classification (MDCKII-hMDR1 cells)	Efflux Ratio (BA/AB) (MDCKII-hMDR1 cells)	Papp (AB) (MDCKII-hMDR1 cells) [×10⁻⁶ cm/s]	Papp (BA) (MDCKII-hMDR1 cells) [×10⁻⁶ cm/s]	In Vivo CLh [7] [mL/min/kg]	In Vivo CLh (% LBF) [7] [% LBF]	t1/2 ([8]; human liver microsomes) [min]	In Vivo CLh [8] [mL/min/kg]	In Vivo CLh (% LBF) [8] [% LBF]	Kinetic Solubility [9] [µM]	Chrom logD [10]	t1/2 [7] [min]	Metabolic stability classification ([8]; human liver microsomes, in words)	Solubility classification ([9]; kinetic solubility, in words)
CC([c-]1cccc1)n1cc(Cn2ccc3cc(I)ccc32)nn1.[Fe+2].c1cc[cH-]c1 (centres unmarked) [Compound 25b, 5-Iodo-1-[1-(1-ferrocenyl-1-methylmethyl-1,2,3-triazol-4-yl)methyl]-1H-indole]	>6.57	> 100	> 100	> 100	> 100	> 100														
CC([c-]1cccc1)n1cc(Cn2cnc3ccccc32)nn1.[Fe+2].c1cc[cH-]c1 (centres unmarked) [Compound 23b, 1-[1-(1-Ferrocenyl-1-methylmethyl-1,2,3-triazol-4-yl)methyl]-1H-benzimidazole]	4.84	68 ± 13.7	83.6 ± 8.61	89.6 ± 13.7	> 100	31.8 ± 9.81														
[Fe+2].c1cc[cH-]c1.c1ccc2c(c1)ccn2Cc1cn(C[c-]2cccc2)nn1 [Compound 24a, 1-[1-(1-Ferrocenylmethyl-1,2,3-triazol-4-yl)methyl]-1H-indole]	>6.57	78 ± 6.61	53.6 ± 5.05	68.7 ± 2.91	62 ± 8.79	16.7 ± 8.61														
Ic1ccc2c(ccn2Cc2cn(C[c-]3cccc3)nn2)c1.[Fe+2].c1cc[cH-]c1 [Compound 25a, 5-Iodo-1-[1-(1-ferrocenylmethyl-1,2,3-triazol-4-yl)methyl]-1H-indole]	>6.57	> 100	> 100	78.5 ± 9.36	> 100	> 100														
CC([c-]1cccc1)n1cc(Cn2ccc3c(Cl)ncnc32)nn1.[Fe+2].c1cc[cH-]c1 (centres unmarked) [Compound 11b, 4-Chloro-7-[1-(1-ferrocenyl-1-methylmethyl-1,2,3-triazol-4-yl)methyl]-7H-pyrrolo[2,3-d] pyrimidine]		31.3 ± 4.51	34.5 ± 1.36	31.4 ± 1.04	32 ± 0.34	8.88 ± 3.46	high permeability	1.5	11.8	17.4	25.7	100	2.3	24.9	97	3 to 10	5.94			
Clc1ncnc2ncn(Cc3cn(C[c-]4cccc4)nn3)c12.[Fe+2].c1cc[cH-]c1 [Compound 15a, 6-Chloro-7-[1-(1-ferrocenymethyl-1,2,3-triazol-4-yl)methyl]-7H-purine]		34.4 ± 0.43	36 ± 1.81	28.6 ± 8.28	27.2 ± 5.3	13.8 ± 4.17	moderate AB permeability; also recorded: good permeability	7.0	4.8	33.5	24.8	97	51.9	15.0	58	>100	3.82	8.8	moderate stability	high solubility
Clc1ncnc2c1ccn2Cc1cn(C[c-]2cccc2)nn1.[Fe+2].c1cc[cH-]c1 [Compound 11a, 4-Chloro-7-[1-(1-ferrocenymethyl-1,2,3-triazol-4-yl)methyl]-7H-pyrrolo[2,3-d]pyrimidine]		32.9 ± 2.46	42 ± 5.93	38.2 ± 2.3	31.6 ± 0.84	8.57 ± 1.95	moderate to high AB permeability	2.2	8.4	18		98	7.8		90	<1	5.62	4.4		
